Results on 11 compounds are retold here after patent EP4389751A1, “HETEROCYCLIC COMPOUNDS AND USES THEREOF” (Kumquat Biosciences Inc., priority 2021, dated 2024).

For assay [1], the system named is A549 cells. The assay can be described thus: Cell proliferation assay (CellTiter-Glo), K-Ras G12S cells. The format is cell-based. As to conditions: for IC50: Homo sapiens, A549, A549 cells (K-Ras G12S), read-out: Inhibition of A549 Cells (IC50); for ratio of IC50 against a G12D cell line to IC50 against a G12S cell line: K-Ras G12D cell line such as GP2D relative to K-Ras G12S cell line such as A549, greater than 1, 2, 3, 4, 5, 10, 15 or even greater, 8640 min. The procedure, abridged:
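A549 cells (K-Ras G12S) in RPMI-1640 with 10% FBS, seeded in standard or ultra-low-attachment plates and dosed next day with a 10-point 3-fold series. Viability read about 6 days later by CellTiter-Glo luminescence. IC50 from four-parameter fit.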

Assay [2] concerns the target T1, KRAS protein (His-tagged GDP-loaded G12S 1-169) (Homo sapiens, UniProt P01116, G12S).
T1 construct: His-tagged GDP-loaded G12S 1-169
Description: Covalent modification of KRAS protein, intact-protein LC-MS. Format: binding. To be noted: 24hrs at room temperature, KRAS protein ~2 µM. The method, boiled down: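 Percent covalent modification derives from deconvoluted intact-mass intensities of compound-adducted versus unmodified KRAS, measured by LC-ESI-MS. Before analysis, ~2 µM GDP-loaded His-KRAS 1-169 was exposed to compound for 24 h at room temperature and acidified with formic acid.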

Assay [3] has as its system GP2D cells. Description: Cell proliferation assay (CellTiter-Glo), K-Ras G12D cells. The format is cell-based. To be noted: GP2D cells (K-Ras G12D); read-out: Inhibition of GP2D Cells (IC50). The method, boiled down: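 CellTiter-Glo luminescence, taken roughly 5 days after dosing, measured growth of G12D-mutant GP2D cells in DMEM/2 mM glutamine/10% FBS. Compound dilution series (e.g., 9 points, 3-fold) added the day after plating. Four-parameter fitting gave IC50.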

Assay [4] deals with T2, K-Ras G12S (Homo sapiens, UniProt P01116, G12S).
T2 construct: made in house; host or cells: E. coli (e.g., BL21 (DE3))
Description: HTRF assay of the K-Ras / SOS1 interaction. The format is biochemical. As to conditions: IC50 (against K-Ras G12D) to IC50 (against K-Ras G12S). The method, boiled down:
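Compounds (duplicates, 10 µM to 0.01 µM) were incubated ≥~10 min with Eu-labelled GST-K-Ras G12S and XL665-labelled His-hSOS1 in HEPES pH 7.4 buffer containing NaCl, DTT, BSA and Igepal. Disruption measured as HTRF emission ratio 665/620 nm, fitted to IC50.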

Read-outs that look alike come from different tables or passages of the source. A value given as a limit tells only on which side of the number the result lay.

With `C#Cc1c(F)ccc2cc(O)cc(-c3ncc4c(N5CCOC6(CN(C(=O)n7cncn7)C6)C5)nc(OC[C@@]56CCCN5C[C@H](F)C6)nc4c3F)c12` [Compound A106, (8-(7-(8-ethynyl-7-fluoro-3-hydroxynaphthalen-1-yl)-8-fluoro-2-(((2R,7aS)-2-fluorotetrahydro-1H-pyrrolizin-7a(5H)-yl)methoxy)pyrido[4,3-d]pyrimidin-4-yl)-5-oxa-2,8-diazaspiro[3.5]nonan-2-yl)(1H-1,2,4-triazol-1-yl)methanone], the IC50 in assay [1] (bin ≤ 500 nM) is at most 0.5 µM; in assay [3] it was 1 to 10 µM. Besides, the “% G12S Modification at 24 hr.” value in assay [2] is on record as “+++ (+++ indicates greater than 20% labelling)”.
With `C#Cc1c(F)ccc2cc(O)cc(-c3ncc4c(N5CCCCC6(CN(C(=O)n7cncn7)C6)C5)nc(OC[C@@]56CCCN5C[C@H](F)C6)nc4c3F)c12` [Compound A128, (6-(7-(8-ethynyl-7-fluoro-3-hydroxynaphthalen-1-yl)-8-fluoro-2-(((2R,7aS)-2-fluorotetrahydro-1H-pyrrolizin-7a(5H)-yl)methoxy)pyrido[4,3-d]pyrimidin-4-yl)-2,6-diazaspiro[3.6]decan-2-yl)(1H-1,2,4-triazol-1-yl)methanone], the IC50 in assay [1] (bin ≤ 500 nM) is at most 0.5 µM; in assay [3] it was at most 1 µM. For the same compound, in assay [1], the “ratio of IC50 against a G12D cell line to IC50 against a G12S cell line” value (shortened to “ratio of IC50 against a G12D cell line”) is “greater than 1”. In assay [2], the “% G12S Modification at 24 hr.” value is “+++ (+++ indicates greater than 20% labelling)”.
Turning to `C#Cc1c(F)ccc2cc(O)cc(-c3ncc4c(N5CCCC6(CN(C(=O)n7cncn7)C6)C5)nc(OC[C@@]56CCCN5C[C@H](F)C6)nc4c3F)c12` [Compound A133, (6-(7-(8-ethynyl-7-fluoro-3-hydroxynaphthalen-1-yl)-8-fluoro-2-(((2R,7aS)-2-fluorotetrahydro-1H-pyrrolizin-7a(5H)-yl)methoxy)pyrido[4,3-d]pyrimidin-4-yl)-2,6-diazaspiro[3.5]nonan-2-yl)(1H-1,2,4-triazol-1-yl)methanone], the figures for the IC50 in assay [1] (bin ≤ 500 nM) and in assay [3] were at most 0.5 µM and 1 to 10 µM, respectively. The “% G12S Modification at 24 hr.” value in assay [2] is “+++ (+++ indicates greater than 20% labelling)”.
Turning to `N#Cc1c(N)sc2c(F)ccc(-c3c(Cl)cc4c(N5CCOC6(CN(C(=O)n7cncn7)C6)C5)nc(OC[C@@]56CCCN5C[C@H](F)C6)nc4c3F)c12` [Compound A162, 4-(4-(2-(1H-1,2,4-triazole-1-carbonyl)-5-oxa-2,8-diazaspiro[3.5]nonan-8-yl)-6-chloro-8-fluoro-2-(((2R,7aS)-2-fluorotetrahydro-1H-pyrrolizin-7a(5H)-yl)methoxy)quinazolin-7-yl)-2-amino-7-fluorobenzo[b]thiophene-3-carbonitrile], the IC50 in assay [1] (bin ≤ 500 nM) was at most 0.5 µM. Also, the “Ratio of IC50 KRAS G12D vs. IC50 KRAS G12S” value in assay [4] is reported as “A (A: indicates that the ratio of IC50 against KrasG12D vs. IC50 against KrasG12S is 1-fold or greater)”. Moreover, the “% G12S Modification at 24 hr.” value in assay [2] is listed as “+++ (+++ indicates greater than 20% labelling)”.
Take `N#Cc1c(N)sc2c(F)ccc(-c3c(Cl)cc4c(N5CCC6CN(C(=O)n7cncn7)CC65)nc(OC[C@@]56CCCN5C[C@H](F)C6)nc4c3F)c12` (stereo partly drawn) [Compound A178, 4-(4-(5-(1H-1,2,4-triazole-1-carbonyl)hexahydropyrrolo[3,4-b]pyrrol-1(2H)-yl)-6-chloro-8-fluoro-2-(((2R,7aS)-2-fluorotetrahydro-1H-pyrrolizin-7a(5H)-yl)methoxy)quinazolm-7-yl)-2-amino-7-fluorobenzo[b]thiophene-3-carbonitrile]: the IC50 was at most 0.5 µM in assay [1] (bin ≤ 500 nM) and at most 1 µM in assay [3]. In assay [2], the “% G12S Modification at 24 hr.” value was “+++ (+++ indicates greater than 20% labelling)”.
Consider `N#Cc1c(N)sc2c(F)ccc(-c3c(Cl)cc4c(N5CC(F)(F)C6(CN(C(=O)n7cncn7)C6)C5)nc(OC[C@@]56CCCN5C[C@H](F)C6)nc4c3F)c12` [Compound A199, 2-amino-4-(6-chloro-4-(8,8-difluoro-2-(1H-1,2,4-triazole-1-carbonyl)-2,6-diazaspiro[3.4]octan-6-yl)-8-fluoro-2-(((2R,7aS)-2-fluorotetrahydro-1H-pyrrolizin-7a(5H)-yl)methoxy)quinazolm-7-yl)-7-fluorobenzo[b]thiophene-3-carbonitrile], for which the “ratio of IC50 against a G12D cell line” value in assay [1] is reported as “greater than 1”. The “Ratio of IC50 KRAS G12D vs. IC50 KRAS G12S” value in assay [4] was “A (A: indicates that the ratio of IC50 against KrasG12D vs. IC50 against KrasG12S is 1-fold or greater)”. Also, the “% G12S Modification at 24 hr.” value in assay [2] is listed as “+++ (+++ indicates greater than 20% labelling)”.
Consider `C#Cc1c(F)ccc2cc(O)cc(-c3ccc4c(N5CCCC6(CN(C(=O)n7cncn7)C6)C5)nc(OC[C@@]56CCCN5C[C@H](F)C6)nc4c3F)c12` [Compound A210, (6-(7-(8-ethynyl-7-fluoro-3-hydroxynaphthalen-1-yl)-8-fluoro-2-(((2R,7aS)-2-fluorotetrahydro-1H-pyrrolizin-7a(5H)-yl)methoxy)quinazolin-4-yl)-2,6-diazaspiro[3.5]nonan-2-yl)(1H-1,2,4-triazol-1-yl)methanone], for which the IC50 was at most 0.5 µM in assay [1] (bin ≤ 500 nM) and 1 to 10 µM in assay [3]. In addition, the “ratio of IC50 against a G12D cell line” value in assay [1] is listed as “greater than 1”. Moreover, in assay [2], the “% G12S Modification at 24 hr.” value is “+++ (+++ indicates greater than 20% labelling)”.
The matching figures for `C[C@H](Oc1nc(N2CCCCC3(CN(C(=O)n4cncn4)C3)C2)c2cc(Cl)c(-c3ccc(F)c4sc(N)c(C#N)c34)c(F)c2n1)[C@@H]1CCCN1C` [Compound A219, 4-(4-(2-(1H-1,2,4-triazole-1-carbonyl)-2,6-diazaspiro[3.6]decan-6-yl)-6-chloro-8-fluoro-2-((S)-1-((S)-1-methylpyrrolidin-2-yl)ethoxy)quinazolin-7-yl)-2-amino-7-fluorobenzo[b]thiophene-3-carbonitrile]: at most 0.5 µM, at most 1 µM, “greater than 1” and “+++ (+++ indicates greater than 20% labelling)”.
As for `C#Cc1c(F)ccc2cc(O)cc(-c3ncc4c(N5CC6CCC(C5)N6C(=O)n5cnc(C#N)c5)nc(OC[C@@]56CCCN5C[C@H](F)C6)nc4c3F)c12` [Compound A255, 1-(3-(7-(8-ethynyl-7-fluoro-3-hydroxynaphthalen-1-yl)-8-fluoro-2-(((2R,7aS)-2-fluorotetrahydro-1H-pyrrolizin-7a(5H)-yl)methoxy)pyrido[4,3-d]pyrimidin-4-yl)-3,8-diazabicyclo[3.2.1]octane-8-carbonyl)-1H-imidazole-4-carbonitrile], the figures for the IC50 in assay [1] (bin 500 nM to 5 µM) and in assay [3] were 0.5 to 5 µM and at most 1 µM, respectively. Besides, in assay [2], the “% G12S Modification at 24 hr.” value was “++ (++ indicates between about 1%- 20% labelling)”.
As to `C[C@H](Oc1nc(N2CCOC3(CN(C(=O)n4cncn4)C3)C2)c2cc(Cl)c(-c3ccc(F)c4sc(N)c(C#N)c34)c(F)c2n1)[C@@H]1CCCN1C` [Compound A275, 4-(4-(2-(1H-1,2,4-triazole-1-carbonyl)-5-oxa-2,8-diazaspiro[3.5]nonan-8-yl)-6-chloro-8-fluoro-2-((S)-1-((S)-1-methylpyrrolidin-2-yl)ethoxy)quinazolin-7-yl)-2-amino-7-fluorobenzo[b]thiophene-3-carbonitrile], the half-maximal inhibitory concentration (IC50) in assay [1] (bin ≤ 500 nM) was at most 0.5 µM; in assay [3], 1 to 10 µM. In addition, in assay [2], the “% G12S Modification at 24 hr.” value was “+++ (+++ indicates greater than 20% labelling)”.
Take `N#Cc1c(N)sc2c(F)ccc(-c3c(Cl)cc4c(N5CCCCC6(CN(C(=O)n7cncn7)C6)C5)nc(OC[C@@]56CCCN5C[C@H](F)C6)nc4c3F)c12` [Compound A295, 4-(4-(2-(1H-1,2,4-triazole-1-carbonyl)-2,6-diazaspiro[3.6]decan-6-yl)-6-chloro-8-fluoro-2-(((2R,7aS)-2-fluorotetrahydro-1H-pyrrolizin-7a(5H)-yl)methoxy)quinazolin-7-yl)-2-amino-7-fluorobenzo[b]thiophene-3-carbonitrile]: the values for the IC50 in assay [1] (bin ≤ 500 nM) and in assay [3] were at most 0.5 µM and at most 1 µM, respectively. Besides, in assay [2], the “% G12S Modification at 24 hr.” value is listed as “+++ (+++ indicates greater than 20% labelling)”.
